The results in this text go back to US8592469B2, “Diazonamide analogs” (Joyant Pharmaceuticals, Inc., priority 2012, dated 2013).

One test deals with A2058 cells. Description: Cell viability assay (Cell-Titer-Glo) in A2058 cells. It counts as cell-based. Particulars: Homo sapiens, 48 hour treatment, test compounds 1 nM to 1 μM. The procedure: (§1) Cell viability assays were run using standard protocols known to those of skill in art. Cells were plated in 96 well plates at the density of 3,000-10,000 cells per well. Twenty four hours later, cells were treated with increasing concentration of test compounds (1 nM to 1 μM). After another 48 hour, cell survival was measured using Cell-Titer-Glo® reagent (Promega) following the protocol provided by the manufacture. The IC50 value was determined as the concentration of test compound that kills 50% of the cell population.
(§2) Cell viability data generated according to the protocol described above was generated for representative compounds in A2058 and U937 cells. The compounds shown in Table 1 were prepared by the methods described herein for structurally similar compounds. The reference compound was a synthetic diazonamide analog having the structure: […]

For a further test, the system named is U937 cells. The experiment in a line: Cell viability assay (Cell-Titer-Glo) in U937 cells. It counts as cell-based. Particulars: Homo sapiens, U-937, 48 hour treatment, test compounds 1 nM to 1 μM. The procedure:
as §1, §2

In the case of `COC(=O)c1coc(-c2nc3oc2[C@@]24c5ccccc5NC2Oc2ccc(cc24)C[C@H](NC(=O)[C@@H](O)C(C)C)C(=O)N[C@H]3C2CCCCC2)n1` (stereo partly shown) [Compound 58], the values for the concentration for half-maximal inhibition (IC50) in the test on A2058 cells and with U937 cells were greater than 1000 nM and 445 nM, respectively.
Consider `CC(C)[C@H](O)C(=O)N[C@H]1Cc2ccc3c(c2)[C@]2(C4=C(c5nc(CO)co5)N=C(O4)[C@H](C4CCCCC4)NC1=O)c1ccccc1NC2O3` (stereo partly shown) [Compound 60], for which the values for the IC50 with A2058 cells and in the test with U937 cells were greater than 1000 nM and 795 nM, respectively.
In the case of `COC(=O)c1coc(-c2coc([C@@H]3CCCN3C(=O)[C@H](Cc3ccc4c(c3)[C@@H]3c5ccccc5NC3O4)NC(=O)[C@@H](O)C(C)C)n2)n1` (stereo partly shown) [Compound 61], the IC50 – broadly, the point on the concentration scale where inhibition reaches its midpoint – in the test on A2058 cells was greater than 1000 nM; in the test on U937 cells, 761 nM.
On to `CC(C)[C@H](O)C(=O)N[C@H]1Cc2ccc3c(c2)C2(C4=C(c5nc(C#N)co5)N=C(O4)[C@H](C(C)(C)C)NC1=O)c1ccccc1N[C@H]2O3` (stereo partly shown) [Compound 62], for which the IC50 in the test on A2058 cells is 2.54 nM; in the test with U937 cells, 15.6 nM.
`CCC(O)(CC)C(=O)N[C@H]1Cc2ccc3c(c2)C2(C4=C(c5nc(C(=O)OC)co5)N=C(O4)[C@H](C(C)(C)C)NC1=O)c1ccccc1N[C@H]2O3` (stereo partly shown) [Compound 63]: the IC50 is 15.5 nM with A2058 cells and 1.97 nM with U937 cells.
Consider `CCC(O)(CC)C(=O)N[C@H]1Cc2ccc3c(c2)C2(C4=C(c5nc(CO)co5)N=C(O4)[C@H](C(C)(C)C)NC1=O)c1ccccc1N[C@H]2O3` (stereo partly shown) [Compound 64], for which the 50% inhibitory concentration (IC50) in the test on A2058 cells is 43.2 nM; with U937 cells, 45.9 nM.
Regarding `CCC(O)(CC)C(=O)N[C@H]1Cc2ccc3c(c2)C2(C4=C(c5nc(C#N)co5)N=C(O4)[C@H](C(C)(C)C)NC1=O)c1ccccc1N[C@H]2O3` (stereo partly shown) [Compound 65], the IC50 worked out at 16.8 nM in the test on A2058 cells and 67.6 nM in the test on U937 cells.
Turning to `CC(C)=CC(=O)N[C@H]1Cc2ccc3c(c2)C2(C4=C(c5nc(C#N)co5)N=C(O4)[C@H](C(C)(C)C)NC1=O)c1ccccc1N[C@H]2O3` (stereo partly shown) [Compound 66], the IC50 amounted to 186 nM in the test on A2058 cells and 215 nM in the test with U937 cells.
`CC(C)C[C@H](O)C(=O)NC1Cc2ccc3c(c2)C2(C4=C(c5nc(C#N)co5)N=C(O4)[C@H](C(C)(C)C)NC1=O)c1ccccc1N[C@H]2O3` (stereo partly shown) [Compound 67]: the IC50 was found to be 35.8 nM in the test with A2058 cells and 89.7 nM in the test on U937 cells.
For `CCC(C)(O)C(=O)N[C@H]1Cc2ccc3c(c2)C2(C4=C(c5nc(C#N)co5)N=C(O4)[C@H](C(C)(C)C)NC1=O)c1ccccc1N[C@H]2O3` (stereo partly shown) [Compound 68], the IC50 is 21.1 nM in the test on A2058 cells and 59.6 nM in the test with U937 cells.
The corresponding values for `CCC(C)(C)C(=O)NC1Cc2ccc3c(c2)C2(C4=C(c5nc(C#N)co5)N=C(O4)[C@H](C(C)(C)C)NC1=O)c1ccccc1N[C@H]2O3` (stereo partly shown) [Compound 69] are 95.5 nM and 225 nM.
For `COC(=O)c1coc(-c2nc3oc2[C@@]24c5ccccc5NC2Oc2c(Cl)cc(cc24)CC(NC(=O)[C@@H](O)C(C)C)C(=O)N[C@H]3C(C)C)n1` (stereo partly shown) [Compound 70], the IC50 in the test with A2058 cells was 77 nM; in the test on U937 cells it was 15 nM.
In the case of `COC(=O)c1coc(-c2nc3oc2[C@@]24c5ccccc5NC2Oc2c(F)cc(cc24)CC(NC(=O)[C@@H](O)C(C)C)C(=O)N[C@H]3C(C)C)n1` (stereo partly shown) [Compound 71], the IC50 with A2058 cells was determined as 67 nM; with U937 cells it was 9.2 nM.
As to `CCCCCCc1cc2cc3c1O[C@@H]1Nc4ccccc4C31c1oc(nc1-c1nc(C(=O)OC)co1)[C@H](C(C)C)NC(=O)[C@@H](NC(=O)[C@@H](O)C(C)C)C2` (stereo partly shown) [Compound 72], the results for the 50% inhibitory concentration (IC50) in the test with A2058 cells and in the test with U937 cells were greater than 300 nM and 213 nM, respectively.
In the case of `COC(=O)c1coc(-c2nc3oc2C24c5ccccc5N[C@H]2Oc2ccc(cc24)CC[C@H](NC(=O)[C@@H](O)C(C)C)C(=O)N[C@H]3C(C)(C)C)n1` (stereo partly shown) [Compound 73], the IC50 with A2058 cells and with U937 cells was less than 0.1 nM in each case.
As to `COC(=O)c1coc(-c2nc3oc2[C@]24c5ccccc5NC2Oc2ccc(cc24)CC[C@H](NC(=O)[C@@H](O)C(C)C)C(=O)N[C@H]3C(C)(C)C)n1` (stereo partly shown) [Compound 74], the half-maximal inhibitory concentration (IC50) in the test on A2058 cells and in the test with U937 cells was greater than 100 nM each time.
On to `CC(C)[C@H](O)C(=O)N[C@H]1CCc2ccc3c(c2)[C@]2(C4=C(c5nc(CO)co5)N=C(O4)[C@H](C(C)(C)C)NC1=O)c1ccccc1NC2O3` (stereo partly shown) [Compound 75], for which the IC50 worked out at 1.89 nM in the test with A2058 cells and 6.55 nM in the test on U937 cells.
The corresponding values for `COC(=O)c1coc(-c2nc3oc2C24c5cc(ccc5O[C@@H]2N(S(C)(=O)=O)c2ccccc24)C[C@H](NC(=O)[C@@H](O)C(C)C)C(=O)N[C@H]3C(C)C)n1` (stereo partly shown) [Compound 76] are greater than 1000 nM and 614 nM.
Regarding `CC(C)[C@H](O)C(=O)N[C@H]1Cc2ccc3c(c2)C2(C4=C(c5nc(CO)co5)N=C(O4)[C@H](C(C)C)NC1=O)c1ccccc1N(S(C)(=O)=O)[C@H]2O3` (stereo partly shown) [Compound 77], the IC50 in the test on A2058 cells was greater than 1000 nM; in the test with U937 cells it was 777 nM.
Regarding `COC(=O)c1coc(-c2nc3oc2C24c5cc(ccc5O[C@@H]2N(C)c2ccccc24)C[C@H](NC(=O)[C@@H](O)C(C)C)C(=O)N[C@H]3C(C)C)n1` (stereo partly shown) [Compound 78], the values for the half-maximal inhibitory concentration (IC50) in the test with A2058 cells and with U937 cells were 114 nM and 17.4 nM, respectively.
In the same order, the values of `COC(=O)c1coc(-c2nc3oc2C24c5cc(ccc5O[C@@H]2Nc2c(-c5ccccc5)cccc24)C[C@H](NC(=O)[C@@H](O)C(C)C)C(=O)N[C@H]3C(C)C)n1` (stereo partly shown) [Compound 79] are 270 nM and 210 nM.
In the same order, the values of `COC(=O)c1coc(-c2nc3oc2C24c5cc(F)ccc5N[C@H]2Oc2ccc(cc24)C[C@H](NC(=O)[C@@H](O)C(C)C)C(=O)N[C@H]3C(C)C)n1` (stereo partly shown) [Compound 80] are 13.6 nM and 4.07 nM.
On to `CC(C)[C@H](O)C(=O)N[C@H]1Cc2ccc3c(c2)[C@]2(C4=C(c5nc(CO)co5)N=C(O4)[C@H](C(C)C)NC1=O)c1cc(F)ccc1N[C@@H]2O3` [Compound 81], for which the 50% inhibitory concentration (IC50) was 55.1 nM with A2058 cells and 32.8 nM in the test with U937 cells.
As to `COC(=O)c1coc(-c2nc3oc2C24c5ccc(F)cc5N[C@H]2Oc2ccc(cc24)C[C@H](NC(=O)[C@@H](O)C(C)C)C(=O)N[C@H]3C(C)C)n1` (stereo partly shown) [Compound 82], the figures for the IC50 with A2058 cells and in the test with U937 cells were 40.9 nM and 3.4 nM, respectively.
In the case of `CC(C)[C@H](O)C(=O)N[C@H]1Cc2ccc3c(c2)C2(C4=C(c5nc(CO)co5)N=C(O4)[C@H](C(C)C)NC1=O)c1ccc(F)cc1N[C@H]2O3` (stereo partly shown) [Compound 83], the IC50 worked out at 184 nM with A2058 cells and 60.6 nM in the test with U937 cells.
With `COC(=O)c1coc(-c2nc3oc2C24c5cc(Cl)ccc5N[C@H]2Oc2ccc(cc24)C[C@H](NC(=O)[C@@H](O)C(C)C)C(=O)N[C@H]3C(C)(C)C)n1` (stereo partly shown) [Compound 84], the half-inhibitory concentration (IC50) in the test on A2058 cells was determined as 19.5 nM; with U937 cells, 10.1 nM.
In the same order, the values of `CC(C)[C@H](O)C(=O)N[C@H]1Cc2ccc3c(c2)[C@]2(C4=C(c5nc(CO)co5)N=C(O4)[C@H](C(C)(C)C)NC1=O)c1cc(F)ccc1N[C@@H]2O3` [Compound 85] are 0.47 nM and 0.74 nM.
With `CC(C)[C@H](O)C(=O)N[C@H]1Cc2ccc3c(c2)[C@]2(C4=C(c5nc(C#N)co5)N=C(O4)[C@H](C(C)C)NC1=O)c1cc(F)ccc1N[C@@H]2O3` [Compound 86], the concentration for half-maximal inhibition (IC50) in the test with A2058 cells was determined as 0.56 nM; with U937 cells, 21.8 nM.
As for `CC(C)[C@H](O)C(=O)N[C@H]1Cc2ccc3c(c2)[C@]2(C4=C(c5nc(C#N)co5)N=C(O4)[C@H](C(C)(C)C)NC1=O)c1cc(F)ccc1N[C@@H]2O3` [Compound 87], the IC50 with A2058 cells was less than 0.3 nM; in the test on U937 cells it was 1.9 nM.
With `COC(=O)c1coc(-c2nc3oc2[C@@]24c5ccccc5NC2Oc2ccc(cc24)C[C@H](N(C)C(=O)[C@@H](O)C(C)C)C(=O)N[C@H]3C(C)C)n1` (stereo partly shown) [Compound 88], the half-maximal inhibitory concentration (IC50) was 0.8 nM in the test with A2058 cells and 0.6 nM in the test on U937 cells.
In the same order, the values of `CC(C)[C@H](O)C(=O)N(C)[C@H]1Cc2ccc3c(c2)[C@]2(C4=C(c5nc(CO)co5)N=C(O4)[C@H](C(C)C)NC1=O)c1ccccc1NC2O3` (stereo partly shown) [Compound 89] are 3 nM and 1 nM.
For `COC(=O)c1coc(-c2nc3oc2[C@@]24c5ccccc5NC2Oc2ccc(cc24)C[C@H](N(C)C(=O)[C@@H](O)C(C)C)C(=O)N[C@H]3C(C)(C)C)n1` (stereo partly shown) [Compound 90], the concentration for half-maximal inhibition (IC50) worked out at 10.4 nM in the test with A2058 cells and 17.1 nM with U937 cells.
In the same order, the values of `CC(C)[C@H](O)C(=O)N(C)[C@H]1Cc2ccc3c(c2)[C@]2(C4=C(c5nc(C#N)co5)N=C(O4)[C@H](C(C)C)NC1=O)c1ccccc1NC2O3` (stereo partly shown) [Compound 91] are 0.59 nM and 1.97 nM.
Consider `COC(=O)c1coc(-c2nc3oc2[C@@]24c5ccccc5NC2Oc2ccc(cc24)C[C@H](NC(=O)[C@@H](O)C(C)C)C(=O)N(C)[C@H]3C(C)C)n1` (stereo partly shown) [Compound 92], for which the 50% inhibitory concentration (IC50) in the test with A2058 cells came to 113 nM; with U937 cells, 69.9 nM.
Regarding `COC(=O)c1coc(-c2nc3oc2[C@@]24c5ccccc5NC2Oc2ccc(cc24)C[C@H](N(C)C(=O)[C@@H](O)C(C)C)C(=O)N(C)[C@H]3C(C)C)n1` (stereo partly shown) [Compound 93], the half-inhibitory concentration (IC50) was 35.8 nM with A2058 cells and 18.6 nM with U937 cells.
Take `COC(=O)c1coc(-c2nc3oc2[C@]24c5ccccc5NC2Oc2ccc(cc24)C[C@H](NC(=O)[C@@H](O)C(C)C)C(=O)N(C)[C@H]3C(C)C)n1` (stereo partly shown) [Compound 94]: the concentration for half-maximal inhibition (IC50) with A2058 cells and with U937 cells was greater than 300 nM each time.
Turning to `CC(C)[C@H](O)C(=O)N[C@H]1Cc2ccc3c(c2)C2(C4=C(c5nc6cnccc6o5)N=C(O4)[C@H](C(C)C)NC1=O)c1ccccc1N[C@H]2O3` (stereo partly shown) [Compound 95], the IC50 in the test with A2058 cells was determined as 142 nM; in the test on U937 cells it was 65 nM.
As for `CC(C)[C@H](O)C(=O)N[C@H]1Cc2ccc3c(c2)[C@]2(C4=C(c5ccccc5)N=C(O4)[C@H](C(C)C)NC1=O)c1ccccc1NC2O3` (stereo partly shown) [Compound 96], the IC50 in the test with A2058 cells and with U937 cells was greater than 1000 nM in each case.
